Data on 30 molecules can be found in article PMC8667944 (Journal of Enzyme Inhibition and Medicinal Chemistry, 2021).

SMILES strings stand for the structures.

The first assay concerns the target T1, NgCA (Neisseria gonorrhoeae, UniProt Q50940).
T1 construct: gene cah; recombinant enzyme obtained in-house
T1 sequence (Q50940 27-252): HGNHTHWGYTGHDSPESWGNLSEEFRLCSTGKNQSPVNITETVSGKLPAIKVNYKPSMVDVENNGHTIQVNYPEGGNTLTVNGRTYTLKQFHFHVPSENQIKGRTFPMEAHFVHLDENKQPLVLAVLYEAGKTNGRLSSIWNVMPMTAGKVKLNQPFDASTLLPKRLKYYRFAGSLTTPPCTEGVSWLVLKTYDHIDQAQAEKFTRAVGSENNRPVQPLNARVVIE
The assay can be described thus: stopped-flow CO2 hydration assay. It is filed as biochemical.
Conditions: not given
With `S=C(S)N1CCNCC1` [compound 28, 28], the Ki was determined as 276 nM. As for `S=C(S)N1CCCCC1` [compound 17, 17], the Ki worked out at 731 nM.

Still in this assay, the particulars now being: read-out: Ki (nM)^a / NgCA.
With `CCCCN(CC)C(=S)S` [compound 27, 27], the Ki is 577 nM.

As to `CC1COCCN1C(=S)S` (stereo not drawn) [compound 19, 19], the Ki was 723 nM. Consider `CC(=O)NC1CCCN(C(=S)S)C1` (stereo not drawn) [compound 15, 15], for which the Ki was determined as 451 nM. Consider `OCCCNC(=S)S` [compound 5, 5], for which the Ki came out at 413 nM. Take `S=C(S)N[C@@H]1CN2CCC1CC2` [compound 11, 11]: the Ki came to 473 nM. In the case of `S=C(S)NC1CN2CCC1CC2` (racemic) [compound 12, 12], the Ki is 482 nM. Same read-out and setting: as for `S=C(S)NCCc1ccccc1` [compound 2, 2], the figure is 259 nM; as for `NS(=O)(=O)c1ccc(CCNC(=S)S)cc1` [compound 1, 1], 83.7 nM.

With `OCCCCNC(=S)S` [compound 4, 4], the Ki stood at 438 nM. As for `CC(C)(C)OC(=O)NC1CCCN(C(=S)S)C1` (stereo not drawn) [compound 6, 6], the Ki amounted to 538 nM. The same measure, in the same setting: in the case of `OC1CCCN(C(=S)S)C1` (stereo not drawn) [compound 10, 10] it was 367 nM.

As to `OCCCCCNC(=S)S` [compound 21, 21], the Ki amounted to 454 nM. Still for that read-out and setting: in the case of `S=C(S)N1CCOCC1` [compound 23, 23] it was 483 nM. The same measure, in the same setting: in the case of `O=C(CN1CCN(C(=S)S)CC1)NC1CCCCC1` [compound 20, 20] it was 84.4 nM; in that of `N#CC1(c2ccccc2)CCN(C(=S)S)CC1` [compound 30, 30], 365 nM.

Take `O=C(O)C1COCCN1C(=S)S` (stereo not drawn) [compound 18, 18]: the Ki is 672 nM. For the molecule `O=C(O)[C@@H]1CCCN(C(=S)S)C1` [compound 13, 13], the Ki was 242 nM. Regarding `CCCN(CCC)C(=S)S` [compound 26, 26], the Ki turned out to be 522 nM. In the case of `O=C(O)C1CCCN(C(=S)S)C1` (racemic) [compound 9, 9], the Ki was found to be 297 nM.

On to `S=C(S)N[C@H]1CN2CCC1CC2` [compound 16, 16], for which the Ki worked out at 518 nM. Still for that read-out and setting: in the case of `S=C(S)N1CCN(C(=S)S)CC1` [compound 29, 29] it was 136 nM; in that of `O=C(O)C1CCCCN1C(=S)S` (stereo not drawn) [compound 7, 7], 827 nM. With `CN(C)CCNC(=S)S` [compound 3, 3], the Ki amounted to 568 nM. For the molecule `O=C(O)C1CCN(C(=S)S)CC1` [compound 8, 8], the Ki was 514 nM. Still for that read-out and setting: in the case of `CCCCN(CCCC)C(=S)S` [compound 25, 25] it was 460 nM; in that of `CN(Cc1ccccc1)C(=S)S` [compound 24, 24], 654 nM. Same read-out and setting: in the case of `O=C(O)[C@H]1CCCN(C(=S)S)C1` [compound 14, 14] it was 335 nM; in that of `CC(C)CN(CC(C)C)C(=S)S` [compound 22, 22], 554 nM.
